Assay results: patent publication US20100311741A1, “Bicyclosulfonyl Acid (BCSA) Compounds and Their Use as Therapeutic Agents” (INHIBOX LTD., priority 2007, published 2010)

Assays:
[1] = target: T1, Human recombinant TACE enzyme (Homo sapiens, UniProt P78536); assay: TACE assay (fluorescent peptide substrate); type: biochemical; details: 3.5 h; for inhibition at 100 µM: single concentration @100 (μM), read-out: Av. TACE Inhibition, % @100
T1 construct: purchased R and D Systems, Abingdon, UK 930-ADB
Method: The activity of the compounds as TACE inhibitors was determined using a commercially available peptide substrate (M-2255, Bachem UK Ltd, St. Helens, UK) and recombinant TACE enzyme (930-ADB, R and D Systems, Abingdon, UK). Human recombinant TACE enzyme (5 ng/30 μL) was incubated for 3.5 hour at 37° C. in assay buffer (25 mM Tris.HCl, 2.5 μM ZnCl2, 0.005% Brij 35, pH 8.0) with 5 μM substrate in the presence of test compound (TACE inhibitor). The extent of TACE activity was determined by measurement of the fluorescence (excitation 355 nm, emission 460 nm).
Percent activity (% activity) for each test compound was calculated as:
% activity={(S^C−B)/(S^o−B)}×100
wherein S^C denotes signal measured in the presence of enzyme and the compound being tested, S^o denotes signal measured in the presence of enzyme but in the absence of the compound being tested, and B denotes the background signal measured in the absence of both enzyme and compound being tested. The IC50 corresponds to the concentration which achieves 50% activity.

T1 sequence (P78536 215-671 limits assumed): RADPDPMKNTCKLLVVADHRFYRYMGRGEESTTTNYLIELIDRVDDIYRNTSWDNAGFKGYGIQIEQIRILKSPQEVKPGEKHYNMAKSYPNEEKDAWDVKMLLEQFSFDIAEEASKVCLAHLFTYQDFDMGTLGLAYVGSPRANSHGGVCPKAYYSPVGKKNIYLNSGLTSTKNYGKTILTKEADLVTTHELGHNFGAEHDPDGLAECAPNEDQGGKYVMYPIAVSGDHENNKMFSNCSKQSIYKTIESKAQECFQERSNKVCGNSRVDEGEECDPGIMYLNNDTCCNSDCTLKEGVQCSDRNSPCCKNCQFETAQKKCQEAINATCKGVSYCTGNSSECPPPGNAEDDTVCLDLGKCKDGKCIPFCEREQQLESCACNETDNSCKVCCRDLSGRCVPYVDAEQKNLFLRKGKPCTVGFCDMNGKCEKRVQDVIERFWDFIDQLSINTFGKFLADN

| Compound | melting point | inhibition at 100 µM [1] [%] | other results |
| --- | --- | --- | --- |
| O=C(CC1NS(=O)(=O)c2ccccc21)NO (stereo not shown) [Compound (5.37), 2-(1,1-Dioxo-2,3-dihydro-1H-benzo[d]isothiazol-3-yl)-N-hydroxyacetamide] | 152 to 154 °C |  |  |
| COc1ccc(N2C(CC(=O)NO)c3ccccc3S2(=O)=O)cn1 (stereo not shown) [Compound (5.40), 2-[2-(6-Methoxy-pyridin-3-yl)-1,1-dioxo-2,3-dihydro-1Hbenzo[d]isothiazol-3-yl]-N-hydroxyacetamide] | 189 to 190 °C |  |  |
| O=C(CC1c2ccccc2S(=O)(=O)N1C1CCN(Cc2ccccc2)CC1)NO (stereo not shown) [Compound (5.42), 2-[2-(1-Benzylpiperidin-4-yl)-1,1-dioxo-2,3-dihydro-1H-benzo[d]isothiazol-3-yl]-N-hydroxyacetamide] | 141 to 143 °C |  |  |
| C=CCOc1ccc(N2C(CC(=O)NO)c3ccccc3S2(=O)=O)cc1 (stereo not shown) [Compound (5.47), 2-[2-(4-Allyloxy-phenyl)-1,1-dioxo-2,3-dihydro-1H-benzo[d]isothiazol-3-yl]-N-hydroxyacetamide] | 166 to 168 °C (dec.) |  |  |
| O=C(CC1c2ccccc2S(=O)(=O)N1c1ccc(OCc2ccncc2)cc1)NO (stereo not shown) [Compound (5.48), 2-{1,1-Dioxo-2-[4-(pyridin-4-ylmethoxy)phenyl]-2,3-dihydro-1H-benzo[d]isothiazol-3-yl}-N-hydroxyacetamide] | 212 to 214 °C (dec.) |  |  |
| O=C(CC1c2ccccc2S(=O)(=O)N1c1ccc(OCc2ccccn2)cc1)NO (stereo not shown) [Compound (5.50), 2-{1,1-Dioxo-2-[4-(pyridin-2-ylmethoxy)phenyl]-2,3-dihydro-1H-benzo[d]isothiazol-3-yl}-N-hydroxyacetamide] | > 170 °C (dec.) |  |  |
| CCC#CCOc1ccc(N2C(CC(=O)NO)c3ccccc3S2(=O)=O)cc1 (stereo not shown) [Compound (5.52), 2-[1,1-Dioxo-2-(4-pent-2-ynyloxy-phenyl)-2,3-dihydro-1H-benzo[d]isothiazol-3-yl]-N-hydroxyacetamide] | 135 to 137 °C (dec.) |  |  |
| C#CCOc1ccc(N2C(CC(=O)NO)c3ccccc3S2(=O)=O)cc1 (stereo not shown) [Compound (5.53), 2-[1,1-Dioxo-2-(4-prop-2-ynyloxy-phenyl)-2,3-dihydro-1H-benzo[d]isothiazol-3-yl]-N-hydroxyacetamide] | 155 to 157 °C (dec.) |  |  |
| C#CCCOc1ccc(N2C(CC(=O)NO)c3ccccc3S2(=O)=O)cc1 (stereo not shown) [Compound (5.54), 2-[2-(4-But-3-ynyloxy-phenyl)-1,1-dioxo-2,3-dihydro-1H-benzo[d]isothiazol-3-yl]-N-hydroxyacetamide] | 148 to 150 °C (dec.) |  |  |
| Cc1cc(C(C)Oc2ccc(N3C(CC(=O)NO)c4ccccc4S3(=O)=O)cc2)c2ccccc2n1 (stereo not shown) [Compound (5.56), 2-(2-{4-[1-(2-Methylquinolin-4-yl)ethoxy]-phenyl}-1,1-dioxo-2,3-dihydro-1H-benzo[d]isothiazol-3-yl)-N-hydroxyacetamide] | 200 to 204 °C (dec.) |  |  |
| O=C(CC1c2ccccc2S(=O)(=O)N1c1ccc(OCc2ccnc3ccccc23)cc1)NO (stereo not shown) [Compound (5.57), 2-{1,1-Dioxo-2-[4-(quinolin-4-ylmethoxy)phenyl]-2,3-dihydro-1H-benzo[d]isothiazol-3-yl}-N-hydroxyacetamide] | 218 to 220 °C (dec.) |  |  |
| Cc1cc(COc2ccc(N3C(CC(=O)NO)c4ccccc4S3(=O)=O)cc2)c2cc(F)ccc2n1 (stereo not shown) [Compound (5.58), 2-{2-[4-(6-Fluoro-2-methyl-quinolin-4-ylmethoxy)-phenyl]-1,1-dioxo-2,3-dihydro-1H-benzo[d]isothiazol-3-yl}-N-hydroxyacetamide] | > 140 °C (dec.) |  |  |
| Cc1cc(COc2ccc(N3C(CC(=O)NO)c4ccccc4S3(=O)=O)cc2)c2cc(Cl)ccc2n1 (stereo not shown) [Compound (5.59), 2-{2-[4-(6-Chloro-2-methylquinolin-4-ylmethoxy)-phenyl]-1,1-dioxo-2,3-dihydro-1H-benzo[d]isothiazol-3-yl}-N-hydroxyacetamide] | > 215 °C (dec.) |  |  |
| Cc1cc(COc2ccc(N3C(CC(=O)NO)c4ccccc4S3(=O)=O)cc2)ccn1 (stereo not shown) [Compound (5.60), 2-{2-[4-(2-Methyl-pyridin-4-ylmethoxy)-phenyl]-1,1-dioxo-2,3-dihydro-1H-benzo[d]isothiazol-3-yl}-N-hydroxyacetamide] | > 204 °C (dec.) |  |  |
| Cc1cc(COc2ccc(N3C(CC(=O)NO)c4ccccc4S3(=O)=O)cc2)cc(C)n1 (stereo not shown) [Compound (5.61), 2-{2-[4-(2,6-Dimethyl-pyridin-4-ylmethoxy)phenyl]-1,1-dioxo-2,3-dihydro-1H-benzo[d]isothiazol-3-yl}-N-hydroxyacetamide] | > 210 °C (dec.) |  |  |
| COc1ccc2c(c1)C(CC(=O)NO)N(c1ccccc1)S2(=O)=O (stereo not shown) [Compound (5.62), 2-(5-Methoxy-1,1-dioxo-2-phenyl-2,3-dihydro-1H-benzo[d]isothiazol-3-yl)-N-hydroxyacetamide] | 180 to 182 °C |  |  |
| O=C(CC1c2cc3c(cc2S(=O)(=O)N1c1ccccc1)OCCO3)NO (stereo not shown) [Compound (5.63), 2-(1,1-Dioxo-2-phenyl-2,3,6,7-tetrahydro-1H-5,8-dioxa-thia-2-aza-cyclopenta[b]naphthalen-3-yl)-N-hydroxyacetamide] | 202 to 204 °C (dec.) |  |  |

| Compound | melting point | inhibition at 100 µM [1] [%] | other results |
| --- | --- | --- | --- |
| COc1cc2c(cc1OC)S(=O)(=O)N(c1ccccc1)C2CC(=O)NO (stereo not shown) [Compound (5.64), 2-(5,6-Dimethoxy-1,1-dioxo-2-phenyl-2,3-dihydro-1H-benzo[d]isothiazol-3-yl)-N-hydroxyacetamide] | 197 to 199 °C (dec.) |  |  |
| O=C(CC1c2ccc(Br)cc2S(=O)(=O)N1c1ccccc1)NO (stereo not shown) [Compound (5.68), 2-(6-Bromo-1,1-dioxo-2-phenyl-2,3-dihydro-1H-benzo[d]isothiazol-3-yl)-N-hydroxyacetamide] | 182 to 183 °C |  |  |
| COc1ccccc1N1C(CC(=O)NO)c2ccccc2S1(=O)=O (stereo not shown) [IX-008] |  | 50 |  |
| O=C(CC1c2ccccc2S(=O)(=O)N1c1cccc(Oc2ccccc2)c1)NO (stereo not shown) [IX-011] |  | 86 |  |
| CSc1cccc(N2C(CC(=O)NO)c3ccccc3S2(=O)=O)c1 (stereo not shown) [IX-013] |  | 93 |  |
| O=C(CC1c2ccccc2S(=O)(=O)N1c1cccc(C(F)(F)F)c1)NO (stereo not shown) [IX-014] |  | 81 |  |
| O=C(CC1c2ccccc2S(=O)(=O)N1c1cccc(OC(F)(F)F)c1)NO (stereo not shown) [IX-015] |  | 54 |  |
| O=C(CC1c2ccccc2S(=O)(=O)N1c1cccc(-c2ccccc2)c1)NO (stereo not shown) [IX-017] |  | 97 |  |
| O=C(CC1c2ccccc2S(=O)(=O)N1c1ccc(C(F)(F)F)cc1)NO (stereo not shown) [IX-019] |  | 55 |  |
| CC(C)c1ccc(N2C(CC(=O)NO)c3ccccc3S2(=O)=O)cc1 (stereo not shown) [IX-024] |  | 50 |  |
| O=C(CC1c2ccccc2S(=O)(=O)N1c1ccc(-n2cncn2)cc1)NO (stereo not shown) [IX-030] |  | 54 |  |
| O=C(CC1c2ccccc2S(=O)(=O)N1c1ccc(-c2cnco2)cc1)NO (stereo not shown) [IX-031] |  | 70 |  |
| O=C(CC1c2ccccc2S(=O)(=O)N1c1ccc(N2CCOCC2)cc1)NO (stereo not shown) [IX-034] |  | 36 |  |
| O=C(CC1NS(=O)(=O)c2ccccc21)NO (stereo not shown) [IX-039] |  | 28 |  |
| CN1C(CC(=O)NO)c2ccccc2S1(=O)=O (stereo not shown) [IX-040] |  | 28 |  |
| O=C(CC1c2ccccc2S(=O)(=O)N1C1CCN(Cc2ccccc2)CC1)NO (stereo not shown) [IX-044] |  |  | inhibition at 2 µM ([1]; single concentration @2 (μM), read-out: Av. TACE Inhibition, % @2): 0% |
| CN(C)CCOc1ccc(N2C(CC(=O)NO)c3ccccc3S2(=O)=O)cc1 (stereo not shown) [IX-051] |  | 81 |  |
